Results reported in the supplement of paper PMC4862054.
Where “and” joins values, the source holds several entries; their conditions need not be identical. Equal entries are not always repeated.

Experiments:
MDA-MB-453 = experiment: normalised viability (% of control), CellTiter-Blue; higher = more viable cells (about 100 = DMSO control); conditions: incubation time: 72 h
Experimental: (§1)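 DSRT, CellTiter-Blue viability, 72 h incubation. Signal is normalised to DMSO and benzethonium chloride controls. Value is the normalised response at dose 9.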

DU-4475 = experiment: as above; conditions: incubation time: 72 h
Experimental: as §1

CAL-51 [1] = experiment: as above; conditions: incubation time: 72 h
Experimental: as §1

CAL-85-1 [2] = experiment: as above; conditions: incubation time: 72 h
Experimental: as §1

CAL-148 = experiment: as above; conditions: incubation time: 72 h
Experimental: as §1

HDQ-P1 = experiment: as above; conditions: incubation time: 72 h
Experimental: as §1

BT-474 = conditions: 72 h
Procedure, shortened: (§2)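 The reported EC50 was fitted from percent-inhibition dose-response curves and censored at the highest concentration. Breast cancer cell lines (20 µl suspension) were added to 384-well plates containing compound in 5 µl medium and incubated 72 h, and viability was read with 2.5 µl CellTiter-Blue over 2 h at 37 °C at 560/590 nm. Each plate was normalised to vehicle and a positive kill control and checked by Z'-factor, and rows with zero drug sensitivity score were dropped.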

MDA-MB-468 = conditions: 72 h
Procedure, shortened: as §2

BT-549 [3] = conditions: 72 h
Procedure, shortened: as §2

Hs578T = conditions: 72 h
Procedure, shortened: as §2

CAL-51 [4] = conditions: 72 h
Procedure, shortened: (§3)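 EC50 was fitted from dose-response curves and censored at the highest concentration tested. To build those curves, breast cancer cell lines (20 µl suspension) were seeded into 384-well plates containing compound at 5 concentrations in 10-fold steps over a compound-specific 10,000-fold range and incubated for 72 h. Readouts were CellTox Green fluorescence (485/520 nm) for cell death and then CellTiter-Glo luminescence for viability, with each plate normalised to 0.1 % DMSO and a positive kill control.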

BT-549 [5] = conditions: 72 h; remark: listed apart in the source
Procedure, shortened: as §3

CAL-85-1 [6] = conditions: 72 h
Procedure, shortened: as §3

HCC1599 = conditions: 72 h
Procedure, shortened: as §3

CAL-120 = conditions: 72 h
Procedure, shortened: as §3

Row | EC50, CellTiter-Blue viability (BT-474) | EC50, CellTiter-Blue viability (MDA-MB-468) | EC50, CellTiter-Blue viability (BT-549 [3]) | EC50, CellTiter-Glo (BT-549 [5]) | EC50, CellTiter-Glo (HCC1599) | SMILES | normalised viability (MDA-MB-453) | normalised viability (DU-4475) | normalised viability (CAL-51 [1]) | normalised viability (CAL-85-1 [2]) | normalised viability (CAL-148) | normalised viability (HDQ-P1) | EC50, CellTiter-Blue viability (Hs578T) | EC50, CellTiter-Glo (CAL-51 [4]) | EC50, CellTiter-Glo (CAL-85-1 [6]) | EC50, CellTiter-Glo (CAL-120)
1 | – | – | – | – | – | O=C(Nc1ccncc1)C(=O)c1cn(Cc2ccc(Cl)cc2)c2ccccc12 [Indibulin] (10000 nM) | 36% | 21.4% | 24.4% | 38.9% | 43.7% | 55.2% | – | – | – | –
2 | – | – | – | – | – | NC(=O)c1ccc(I)c([N+](=O)[O-])c1 [Iniparib] (10000 nM) | 84.8% | 94% | 91.6% | 98% | 108% | 106% | – | – | – | –
3 | – | – | – | – | – | CCc1c2c(nc3ccc(OC(=O)N4CCC(N5CCCCC5)CC4)cc13)-c1cc3c(c(=O)n1C2)COC(=O)[C@]3(O)CC [Irinotecan] (10000 nM) | – | 4.69% and 18.8% | 8.48% and 31.6% | – | – | 64% and 80% | – | – | – | –
4 | – | – | – | – | – | Oc1ccc2c(c1)CC[C@H](c1ccccc1)[C@@H]2c1ccc(OCCN2CCCC2)cc1 [Lasofoxifene] (1000 nM) | 107% | 97.8% | 90% | 81.8% | 107% | 125% | – | – | – | –
5 | – | – | – | – | – | Cc1ccc(NC(=O)c2ccc(CN3CCN(C)CC3)cc2)cc1Nc1nc(-c2cccnc2)cs1 [Masitinib] (10000 nM) | 24.4% | 119% | 80.4% | 70.4% | 74.5% | 67.6% | – | – | – | –
6 | 8.6 µM | > 10 µM | 1.55 µM | 3.07 µM | 9.42 µM | O=C(Nc1cccnc1)N1CCC(Cc2cccc(Oc3ccc(C(F)(F)F)cn3)c2)CC1 [PF-3845] | – | – | – | – | – | – | 2.57 µM | 4.2 µM | > 10 µM | > 10 µM
